Values after ≈ are worked out from the molar mass of the structure shown. Where two headings read alike, the source gives them in different places.
Columns and labels:
Vero cells (ATCC CCL81) = test: Cytotoxicity in Vero cells (CellTiter-Glo); assay type: cell-based; conditions: Chlorocebus sabaeus, 48 h, 2 days
Method: Vero cells (ATCC® CCL81) were grown in DMEM, high glucose, GlutaMAX™ (Invitrogen), 10% FBS, 50 units/mL penicillin, and 50 µg/mL streptomycin, seeded as 1200 cells per well in 384-well plates and incubated for 24 h at 37 °C with 5% CO2. Compounds were added as a 3-fold serial dilution series and cells incubated for 2 days at 37 °C with 5% CO2. Viability was measured using CellTiter-Glo® Reagent (Promega).

[1] = test system: M. tuberculosis H37Rv expressing DsRed; test: microbe, parasite or virus in culture; assay type: cell-based; conditions: Mycobacterium tuberculosis, read-out: 7H9-Tw-OADC MIC
physchem = conditions: pH 7.4
[2] = test system: M. tuberculosis H37Rv expressing DsRed; test: microbe, parasite or virus in culture; assay type: cell-based; conditions: Mycobacterium tuberculosis, average ± standard deviation for at least 2 runs, read-out: 7H9-Ty-BT MIC
[3] = Mouse microsomal stability; assay type: in vitro ADME; conditions: for Mouse microsome (% metabolized in 30 min): 2 μM
Method: 4. Method for microsomal stability:
To determine microsomal turnover, test compounds were incubated (2 μM) with liver microsomes in the presence of NADPH, and loss of parent molecule was measured by LC-MS after 30 min.

| Compound | IC50 (Vero cells (ATCC CCL81)) [µM] | MIC [1] [µM] | solubility (physchem) [µg/mL] | MIC [2] [µM] | Mouse microsome (% metabolized in 30 min) ([3]; mouse, microsomes, 0.5 h) [%] | CLint scaled at 2 μM ([3]; mouse, microsomes) [mL/min/kg] | Mouse microsome (% metabolized in 30 min) ([3]; NADPH, 30 min) [%] | CLint scaled at 2 μM ([3]; mouse, microsomes, Table 1, read-out: Mouse microsome unbound intrinsic clearance) [mL/min/kg] |
| --- | --- | --- | --- | --- | --- | --- | --- | --- |
| c1csc(-c2nnc(CN3CCOc4ccccc43)o2)c1 [Compound 32] | > 100 | > 20 | 33 (≈ 110 µM) | 1.8 ± 0.6 (≈ 0.539 µg/mL) | 99 |  |  |  |
| c1ccc(Cc2nnc(-c3cccs3)o2)cc1 [Compound 9] | 79 | > 20 | 31 (≈ 128 µM) | 1.1 ± 0.2 (≈ 0.267 µg/mL) | 99 |  |  |  |
| c1csc(-c2nnc(CN3CCc4ccccc43)o2)c1 [Compound 36] | > 100 | > 20 | 38 (≈ 134 µM) | 2.1 ± 0.1 (≈ 0.595 µg/mL) | 99 |  |  |  |
| CN(Cc1nnc(-c2ccco2)s1)Cc1c(F)cccc1Cl [Compound 10] | 75 | > 20 | 20 (≈ 59.2 µM) | 3.2 ± 0.5 (≈ 1.08 µg/mL) | 99 |  |  |  |
| FC(F)(F)c1ccc(-c2nnc(CN3CCc4ccccc4C3)o2)cc1 [Compound 31] | > 100 | > 20 | < 2 | > 20 |  |  |  |  |
| Fc1ccc(-c2nnc(CN3CCOc4ccccc43)o2)cc1 [Compound 34] | > 100 | > 20 | < 2 | 1.8 ± 0.4 (≈ 0.56 µg/mL) | 98 |  |  |  |
| CN(Cc1nnc(-c2ccco2)o1)C(=O)c1c(F)cccc1Cl [Compound 22] | > 100 | > 20 | 640 (≈ 1910 µM) | > 20 | 95 |  |  |  |
| FC(F)(F)c1ccc(-c2nnc(CN3CCCc4ccccc43)o2)cc1 [Compound 27] | > 100 | > 20 | < 2 | 0.7 ± 0.3 (≈ 0.252 µg/mL) | 87 |  |  |  |
| CN(Cc1nnc(-c2ccco2)o1)CC1CCCCC1 [Compound 19] | 90 | > 20 | 41 (≈ 149 µM) | 0.7 ± 0.5 (≈ 0.193 µg/mL) | 100 |  |  |  |
| c1coc(-c2nnc(SCc3cccc4ccccc34)o2)c1 [Compound 4] |  |  | < 1 |  | 95 | 1680 |  |  |
| c1csc(-c2nnc(COc3ccc4c(c3)OCO4)o2)c1 [Compound 5] |  |  |  |  |  |  | 76 | 332 |
| c1ccc(-c2nnc(CN3CCc4ccccc4C3)o2)cc1 [Compound 29] | > 100 | > 20 | 51 (≈ 175 µM) | 7.7 ± 0.8 (≈ 2.24 µg/mL) | 99 |  |  |  |
| Fc1cccc(Cl)c1COCc1nnc(-c2ccco2)o1 [Compound 21] | > 100 | > 20 | 150 (≈ 486 µM) | 6 ± 0.4 (≈ 1.85 µg/mL) | 100 |  |  |  |
| CN(CCc1c(F)cccc1Cl)c1nnc(-c2ccco2)o1 [Compound 23] | 93 | > 20 | 7 (≈ 21.8 µM) | 4 ± 0.6 (≈ 1.29 µg/mL) | 99 |  |  |  |
| CN(Cc1ccc(C(F)(F)F)cc1)Cc1nnc(-c2cccs2)o1 [Compound 17] | 87 | > 20 | 22 (≈ 62.3 µM) | 6.8 ± 2.4 (≈ 2.4 µg/mL) | 98 |  |  |  |
| CN(Cc1nnc(-c2cccs2)o1)Cc1c(F)cccc1Cl [Compound 11] | > 100 | > 20 | 120 (≈ 355 µM) | 0.6 ± 0.2 (≈ 0.203 µg/mL) | 100 |  |  |  |
| c1csc(-c2nnc(CN3CCc4ccccc4C3)o2)c1 [Compound 28] | > 100 | > 20 | 54 (≈ 182 µM) | 3.7 ± 0.3 (≈ 1.1 µg/mL) | 99 |  |  |  |
| Fc1ccc(-c2nnc(CN3CCCc4ccccc43)o2)cc1 [Compound 26] | > 100 | > 20 | < 2 | 0.2 ± 0.1 (≈ 0.0619 µg/mL) | 100 |  |  |  |
| CN(Cc1nnc(-c2ccco2)o1)Cc1ccccc1Cl [Compound 15] | 98 | > 20 | 270 (≈ 889 µM) | 0.6 ± 0.2 (≈ 0.182 µg/mL) | 100 |  |  |  |

| Compound | IC50 (Vero cells (ATCC CCL81)) [µM] | MIC [1] [µM] | solubility (physchem) [µg/mL] | MIC [2] [µM] | Mouse microsome (% metabolized in 30 min) ([3]; mouse, microsomes, 0.5 h) [%] | CLint scaled at 2 μM ([3]; mouse, microsomes) [mL/min/kg] | Mouse microsome (% metabolized in 30 min) ([3]; NADPH, 30 min) [%] | CLint scaled at 2 μM ([3]; mouse, microsomes, Table 1, read-out: Mouse microsome unbound intrinsic clearance) [mL/min/kg] |
| --- | --- | --- | --- | --- | --- | --- | --- | --- |
| c1csc(-c2nnc(Cc3cccc4c3OCCO4)o2)c1 [Compound 8] | > 100 | > 20 | 77 (≈ 256 µM) | 0.8 ± 0.2 (≈ 0.24 µg/mL) | 99 |  |  |  |
| c1ccc(-c2nnc(CN3CCCC3c3ccccc3)o2)cc1 (centres unmarked) [Compound 41] | > 100 | > 20 | 34 (≈ 111 µM) | 8.3 ± 1.4 (≈ 2.53 µg/mL) | 99 |  |  |  |
| Fc1cccc(Cl)c1CNCc1nnc(-c2ccco2)o1 [Compound 20] | > 100 | > 20 | 180 (≈ 585 µM) | 5.5 ± 0.4 (≈ 1.69 µg/mL) | 99 |  |  |  |
| c1ccc(-c2nnc(CN3CCc4ccccc43)o2)cc1 [Compound 37] | > 100 | > 20 | 21 (≈ 75.7 µM) | 2.3 ± 0.9 (≈ 0.638 µg/mL) | 99 |  |  |  |
| CN(Cc1nnc(-c2ccccc2)o1)Cc1c(F)cccc1Cl [Compound 12] | > 100 | > 20 | 78 (≈ 235 µM) | 0.4 ± 0.2 (≈ 0.133 µg/mL) | 100 |  |  |  |
| c1csc(-c2nnc(CN3CCCc4ccccc43)o2)c1 [Compound 24] | > 100 | > 20 | 5 (≈ 16.8 µM) | 0.8 ± 0.5 (≈ 0.238 µg/mL) | 97 |  |  |  |
| c1ccc(-c2nnc(CN3CCCc4ccccc43)o2)cc1 [Compound 25] | > 100 | > 20 | 3 (≈ 10.3 µM) | 1.7 ± 0.1 (≈ 0.495 µg/mL) | 100 |  |  |  |
| c1ccc(-c2nnc(CN3Cc4ccccc4C3)o2)cc1 [Compound 39] | > 100 | > 20 | 20 (≈ 72.1 µM) | 7.5 ± 3.5 (≈ 2.08 µg/mL) | 98 |  |  |  |
| CN(Cc1ccc(C(F)(F)F)cc1)Cc1nnc(-c2ccccc2)o1 [Compound 18] | 80 | > 20 | 9 (≈ 25.9 µM) | 10.8 ± 3.3 (≈ 3.75 µg/mL) | 99 |  |  |  |
| c1ccc(C2CCCN2Cc2nnc(-c3cccs3)o2)cc1 (centres unmarked) [Compound 40] | 50 | > 20 | 50 (≈ 161 µM) | 9.9 ± 2.1 (≈ 3.08 µg/mL) | 100 |  |  |  |
| c1coc(-c2nnc(Cc3cccc4ccccc34)o2)c1 [Compound 6] | > 100 | > 20 | < 1 | 1.1 ± 0.9 (≈ 0.304 µg/mL) | 100 |  |  |  |
| c1csc(-c2nnc(Cc3ccc4ccccc4c3)o2)c1 [Compound 7] | > 100 | > 20 | < 1 | 5.7 ± 0.2 (≈ 1.67 µg/mL) | 100 |  |  |  |
| FC(F)(F)c1ccc(-c2nnc(CN3CCOc4ccccc43)o2)cc1 [Compound 35] | 85 | > 20 | < 2 | 8.3 ± 1.7 (≈ 3 µg/mL) | 95 |  |  |  |
| CN(Cc1ccccc1)Cc1nnc(-c2cccs2)o1 [Compound 13] | > 100 | > 20 | 420 (≈ 1470 µM) | 0.5 ± 0.1 (≈ 0.143 µg/mL) | 98 |  |  |  |
| c1csc(-c2nnc(CN3Cc4ccccc4C3)o2)c1 [Compound 38] | > 100 | > 20 | 12 (≈ 42.3 µM) | 6.7 ± 1.7 (≈ 1.9 µg/mL) | 99 |  |  |  |
| c1ccc(-c2nnc(CN3CCOc4ccccc43)o2)cc1 [Compound 33] | > 100 | > 20 | 28 (≈ 95.5 µM) | 2.8 ± 1.7 (≈ 0.821 µg/mL) | 99 |  |  |  |
| CN(Cc1ccccc1)Cc1nnc(-c2ccco2)o1 [Compound 14] | > 100 | > 20 | 400 (≈ 1490 µM) | 0.6 ± 0.2 (≈ 0.162 µg/mL) | 95 |  |  |  |
| CN(Cc1ccc(F)cc1)Cc1nnc(-c2ccccc2)o1 [Compound 16] | 97 | > 20 |  | 0.9 ± 0.03 (≈ 0.268 µg/mL) |  |  |  |  |
| Fc1ccc(-c2nnc(CN3CCc4ccccc4C3)o2)cc1 [Compound 30] | > 100 | > 20 | 40 (≈ 129 µM) | 4.7 ± 1.3 (≈ 1.45 µg/mL) | 80 |  |  |  |

— paper PMC5946847, “Synthesis and biological evaluation of aryl-oxadiazoles as inhibitors of Mycobacterium tuberculosis” (Bioorganic & Medicinal Chemistry Letters, 2018)
